This is an account of results in patent US20020035097A1, “Method of preventing and treating chemotherapy-induced alopecia” (priority 1991, published 2002).

In assay [1] the test system is EGF receptors on a cell line established from rat calvaria. The following applies: literature; cited from earlier work.
The subject of another assay is Cytoxan-induced alopecia. Kind of assay: Cytoxan-induced alopecia in young rats. The format is in vivo, rat. The following applies: 0.2 μg in 0.15 ml absolute ethanol topically over head and neck, pretreatment; CTX 35 mg/kg one day.
Assay [2] has as its system EGF receptors on breast cancer cells. The conditions noted are these: literature; cited from earlier work.
Assay [3] deals with Cytoxan/Adriamycin-induced alopecia. Kind of assay: Cytoxan/Adriamycin combination-induced alopecia in young rats. The following applies: 0.2 μg in 0.15 ml absolute ethanol topically over head and neck, pretreatment; 11 rats per group. The format is in vivo, rat. As to the method: Eight 4-day old Sprague Dawley rats were randomized in two groups of 4 rats each. Group I, received EGF […] s.c. on the head daily for 7 days. Group II received buffer injections and served as controls. One day after stopping EGF or buffer injections all rats received Cytoxan 25 mg/kg i.p.×1 day and Adriamycin 2.5 mg/kg i.p.×3 days. […] (FIG. 5).
(§1) 1,25-Dihydroxyvitamin D3 was dissolved in absolute ethanol and applied topically with an applicator. Control animals were similarly treated with the same amount of ethanol. Animals were then kept individually separated for a period of three hours following which the treated area was carefully washed with soap and water and dried. Treatment was given daily beginning on day 5 after birth and ending on day 10.
All chemotherapies were given I.P. and started at 11 days of age. CTX, 35 mg/kg, was given for one day only. VP-16, 1.5 mg/kg, was given for three days. For CTX and ADM combination, CTX, 25 mg/kg was given for one day and ADM, 2.5 mg/kg, for three days. […] Alopecia was recorded on the tenth day from beginning chemotherapy.
A total of 4 experiments were carried out. In the first experiment, protection from Cytoxan-induced alopecia was examined. The experimental group was pretreated with 0.2 μg of 1,25-dihydroxyvitamin D3 in 0.15 ml of absolute ethanol applied topically over the head and neck and the control group received 0.15 ml of alcohol. […] The second experiment was carried out under similar conditions to examine protection from VP-16-induced alopecia. […] The third experiment was designed to examine protection from alopecia induced by Cytoxan-Adriamycin combination. There were 11 rats in each group. […] In the fourth experiment, protection from VP-16-induced alopecia was similarly examined except that the dose of 1,25-dihydroxyvitamin D3 was reduced to 0.1 μg in 0.1 ml absolute ethanol applied topically over the head area only.

The subject of another assay is VP-16-induced alopecia. The assay is described as follows: VP-16 (Etoposide)-induced alopecia in young rats. The format is in vivo, rat. Here is the method: Twelve 7 day old rats were randomized in two groups. Group I was treated daily with buffer 0.1 ml s.c. for four days. The second Group was treated daily with Vitamin D3 50 μg s.c. over head for four days. After stopping the buffer or Vitamin D3 treatment, all rats received 1.5 mg/kg i.p. of VP-16 (Etoposide) daily for three days.
as §1
All chemotherapies were given I.P. and started at 11 days of age. CTX, 35 mg/kg, was given for one day only. VP-16, 1.5 mg/kg, was given for three days. For CTX and ADM combination, CTX, 25 mg/kg was given for one day and ADM, 2.5 mg/kg, for three days. At these doses neither CTX nor ADM alone will produce alopecia. Alopecia was recorded on the tenth day from beginning chemotherapy.
A total of 4 experiments were carried out. In the first experiment, protection from Cytoxan-induced alopecia was examined. The experimental group was pretreated with 0.2 μg of 1,25-dihydroxyvitamin D3 in 0.15 ml of absolute ethanol applied topically over the head and neck and the control group received 0.15 ml of alcohol. All 10 rats in the control group became totally alopecic. […] The second experiment was carried out under similar conditions to examine protection from VP-16-induced alopecia. All 10 rats in the control group developed total body alopecia. […] The third experiment was designed to examine protection from alopecia induced by Cytoxan-Adriamycin combination. There were 11 rats in each group. Six rats in the control group developed alopecia over the head and neck and 5 rats developed total body alopecia. […] In the fourth experiment, protection from VP-16-induced alopecia was similarly examined except that the dose of 1,25-dihydroxyvitamin D3 was reduced to 0.1 μg in 0.1 ml absolute ethanol applied topically over the head area only. All 10 rats in the control group became completely alopecic.
RO 23-7553 (1,25 dihydroxy-16-ene-23-yne-cholecalciferol) was dissolved in absolute ethanol and applied topically with an applicator. Control animals were similarly treated with the same amount of ethanol. Animals were then kept individually separated for a period of three hours following which the treated area was carefully washed with soap and water and dried. Treatment was given daily beginning on day 9 after birth and ending on day 14.
On day 15 all animals received VP-16, 1.5 mg/kg i.p., for three days. Alopecia was recorded on day 25.
Thirteen rats were randomized in two groups. Experimental group, 7 rats; control group, 6 rats. The experimental group was pretreated with 1 μg of RO 23-7553 in 0.2 ml absolute ethanol applied topically over the neck and back and the control group received 0.2 ml of absolute ethanol. All six rats in the control group became totally alopecic over the neck and back.

Assay [4] relates to hair growth. Kind of assay: Stimulation of hair regrowth on shaven backs of rats. The format is in vivo, rat. The conditions noted are these: noted in rats during the chemotherapy-induced alopecia studies.
Assay [5] concerns hair growth. Described as above. The class given is in vivo, rat. As to the method:
The backs of nineteen 25 day old Sprague Dawley rats were shaven and randomized in two groups.
Group I (control 10 rats) received 0.1 ml of ethanol applied topically once daily to the shaven area for 14 days.
Group II (Calcitriol 9 rats) received 50 ng of 1,25-dihydroxyvitamin D3 in 0.1 ml of ethanol applied topically once daily to the shaven area for 14 days.
On day 15 stimulation of hair regrowth was assessed by reshaving an area 6 cm×6 cm in diameter. The hair was collected and weighed. The difference between two groups was highly statistically significant. P. value 0.003 (see Table III and FIG. 11).

Where “and” joins values, the source holds several entries; their conditions need not be identical. Equal values may be shown once. Entries after “also recorded” stand apart in the source; their conditions may differ.

On to `C=C1/C(=C\C=C2/CCC[C@]3(C)[C@@H]([C@H](C)CCCC(C)(C)O)CC[C@@H]23)C[C@@H](O)C[C@@H]1O` [1,25-dihydroxyvitamin D3], for which the “Effect on EGF receptors” value in assay [1] and in assay [2] was “increase EGF receptors” in each case. For the same compound, the “Protection from Cytoxan-induced alopecia” value with Cytoxan-induced alopecia was “all animals in the experimental group were protected”. The “Protection from alopecia induced by Cytoxan-Adriamycin combination” value in assay [3] was “all rats in the experimental group were protected”. Besides, the “Protection from VP-16-induced alopecia” value in the assay on VP-16-induced alopecia (0.1 μg in 0.1 ml absolute ethanol topically over the head area only, pretreatment, VP-16 1.5 mg/kg for three days) was “protected primarily at the site of 1,25-dihydroxyvitamin D3 application; also recorded: less generalized and was more limited to the site of application”; with VP-16-induced alopecia (0.2 μg in 0.15 ml absolute ethanol topically over head and neck, pretreatment, VP-16 1.5 mg/kg for three days) it was “all rats in the experimental group were protected”; in the assay with VP-16-induced alopecia (applied topically 0.5 μg daily in 50% ethanol or DMSO), “protected”. Moreover, the Extent of protection result with VP-16-induced alopecia (0.2 μg topically over head and neck, stated for the CTX, VP-16 and CTX+ADM experiments together) was “not limited to the site of application but involved the entire body”. The “Coat and hair in the treated area” value with hair growth [4] is “better coat of hair and longer hair in the treated area”. The “Hair Weight, Mean S.E.M.” value in the assay on hair growth [5] (50 ng in 0.1 ml ethanol topically once daily for 14 days, 9 rats, day 15, P value 0.003 vs control) was 164 ± 13 Mg. For the same compound, in the assay with hair growth [5] (50 ng in 0.1 ml ethanol topically once daily to shaven area for 14 days, 6 cm×6 cm area reshaved on day 15, listed as Calcitriol), the “Hair Weight (individual rats)” value was 130 Mg and 177 Mg and 140 Mg and 147 Mg and 135 Mg and 202 Mg and 143 Mg and 150 Mg and 253 Mg. Besides, the “Effect on hair growth” value with hair growth [5] (administered topically in the rat) is “stimulation of hair growth”.
